Test results reported in patent publication US20200123127A1, “REMOVAL OF SENESCENCE-ASSOCIATED MACROPHAGES” (EVERON BIOSCIENCES, INC., priority 2016, published 2020).
Where two headings read alike, the source gives them in different places.

Experiments:
[1] = tested on: human neonatal dermal fibroblasts (NDF); experiment: Resazurin viability assay, senescent vs proliferating/quiescent human neonatal dermal fibroblasts; assay type: cell-based; conditions: Homo sapiens, Fibroblast, 72 h, 72 hour exposure, resazurin
Method: FIG. 2. Compound A1.1 selectively kills senescent human neonatal dermal fibroblasts (NDF) cells in a dose- and time-dependent manner. (FIG. 2A) Normal proliferating and quiescent NDF cells, and the cells made senescent via exposure to genotoxic agents (doxorubicin, bleomycin and gamma-irradiation) were incubated with increasing concentrations of A1.1. At 72 hours post-treatment cell viability was measured via resazurin viability assay. (FIG. 2B) Compound A1.1 selectively kills senescent NDF cells in time-dependent manner discriminating between acute genotoxic stress and senescence. Acutely damaged NDF cells were irradiated with 4 Gy gamma-irradiation 24 hours before A1.1 treatment. Senescent NDF cells were treated with bleomycin or irradiated with 15 Gy and incubated for 14 days to induce senescence before treatment with A1.1. Proliferating acutely damaged and senescent NDF cell were treated with 1.875-30 μM A1.1 and viable cells were measured at 72 hours after treatment. Average and standard deviation are shown.
Normal proliferating and quiescent NDF cells, and the cells made senescent via exposure to genotoxic agents (doxorubicin, bleomycin and gamma-irradiation) were incubated with increasing concentrations of A1.1. At 72 hours post-treatment cell viability was measured via resazurin viability assay.
A1.1 selectively kills senescent human neonatal dermal fibroblasts (NDF) cells in time-dependent manner discriminating between acute genotoxic stress and senescence ([…]). Acutely damaged NDF cells were irradiated with 4 Gy gamma-irradiation 24 hours before A1.1 treatment. Senescent NDF cells were treated with bleomycin or irradiated with 15 Gy and incubated for 14 days to induce senescence before treatment with A1.1.
(§1) Cytotoxicity of A1.1 analogs against bleomycin-induced senescent human NDFs and rat dermal fibroblasts (RDFs). Activity of analogs was assessed from dose-response curves against irradiation- or bleomycin-induced senescent and proliferating cells to calculate IC50s (uM). The fold difference of proliferating versus senescent cell IC50s was used to assess the level of specific anti-senescent activity of the compounds.
(§2) For generation senescent human neonatal dermal fibroblasts (NDFs) and adult rat dermal fibroblasts (RDFs), cells are treated at ˜10 ug/ml bleomycin for 3 days (for bleomycin-induced senescence) or irradiated once at 20 Gy using a gamma irradiator (Cs source), followed by at least 7 day recovery in fresh medium for induction of senescence. Senescent and non-senescent (proliferating) cells for each cell line are plated into 384-w plate, followed by 72 hour exposure to a dose titration of compounds. Viability measurements are estimated using the resazurin viability assay. Using GraphPad Prism 5, the IC50 values are calculated from the non-linear regression of log-transformed compound concentrations versus dose-response normalized to background and non-treated controls.

[2] = tested on: adult rat dermal fibroblasts (RDF); experiment: Resazurin viability assay, senescent vs proliferating rat dermal fibroblasts; assay type: cell-based; conditions: Rattus norvegicus, Fibroblast, 72 hour exposure, resazurin
Method: as §1, §2

[3] = tested on: p16(Ink4a) expression in SAMs; experiment: p16(Ink4a) promoter-dependent luciferase activity in alginate bead-elicited macrophages (SAMs) ex vivo; assay type: cell-based, mouse; conditions: SAMs from NDF alginate beads; dose-response testing
Method: FIG. 7. Immunomodulatory regulation of p16(Ink4a) and SAβG in macrophages. Peritoneal lavage cells elicited by alginate-encapsulated SCs from p16^Ink4a/Luc mice were treated ex vivo with immunomodulatory agents for 72 hours. A) p16 promoter-dependent luciferase activity (black bars) and […] activity (via 4-MUG hydrolysis) (gray bars) were measured following treatment with M1- and M2-polarizing stimuli: LPS at 1 ng/mL, IFN-γ at 10 ng/mL, LPS/IFN-γ co-treatment, Poly(I:C) at 10 μg/mL, IFN-α at 100 U/mL, IL-4 at 20 ng/mL, IL-13 at 10 ng/ml, and IL-4/IL-13 co-treatment. Results are shown as the mean±standard deviation for at least 3 independent experiments, with statistical significance between treated compared to non-treated samples depicted. B) Dose-dependent response of JAK1/2 inhibitor Ruxolitinib on luciferase activity in elicited macrophages in the presence (gray bars) or absence (black bars) of IL-4 (10 ng/mL) stimulation. Enzyme activities are expressed as the percent activity relative to non-treated (NT) controls per cell. Statistical significance between IL-4 stimulated and non-stimulated cells at each concentration of ruxolitinib is shown.
FIG. 8. Immunomodulatory regulation of p16(Ink4a) and SAβG in macrophages. Peritoneal lavage cells elicited by alginate-encapsulated SCs from p16^Ink4a/Luc mice were treated ex vivo with immunomodulatory agents for up to 72 hours. (A) mRNA expression of p16(Ink4a) and β-galactosidase (Glb1) in macrophages (relative to B2m expression) with or without LPS stimulation for 72 hours analyzed via qRT-PCR, normalized to non-treated controls. (B) Microphotograph of SAβG-stained adherence-selected macrophages with or without stimulation with LPS (1 ng/mL) for 72 hours (10× objective). (C&D) Kinetics of p16(Ink4a) promoter-dependent luciferase activity per cell with or without LPS stimulation (C) or IL-4 stimulation (D), normalized to activity from non-treated cells at time zero. Results are shown as the mean±standard deviation for at least 3 experiments. Statistical significance with respect to non-treated control at time zero is indicated. (E) Luciferase activity and (3-galactosidase activity (via 4-MUG hydrolysis) from proteose peptone-elicited lavage cells following stimulation with IL-4 (20 ng/mL) for 72 hours, normalized to non-treated controls. (F) Viability following 72 hour dose-response to JAK1/2 inhibitor Ruxolitinib in the presence or absence of IL-4 (10 ng/mL) stimulation, measured by CyQuant Direct DNA-based viability assay. Viability normalized to respective controls lacking Ruxolitinib. (G&H) Dose-response of STAT6 inhibitor AS1517499 against luciferase activity (G) and viability via CyQuant Direct assay (H) following 72 hour treatment in the presence and absence of IL-4 (10 ng/mL). Results normalized to respective controls (with or without IL-4) lacking STAT6 inhibitor. Statistical significance is calculated with respect to the difference between IL-4 stimulated and non-stimulated cells at each concentration of STAT6 inhibitor. (I) Relative luciferase activity per cell following repolarization with M1- and M2-inducing agents. Macrophages were left non-treated (NT) or treated with either LPS (1 ng/ml) or IL-4 (20 ng/ml) for 72 hours (days 1-3), as indicated. For each treatment set, samples were collected at 72 hours (no further treatment; days 4-6=x). Alternatively, cells were washed and placed in fresh medium (−), medium containing LPS (1 ng/mL) and IFN-γ (10 ng/mL), or medium containing IL-4 (20 ng/mL) and IL-13 (10 ng/mL) and incubated for an additional 72 hours prior to sample collection (as indicated for days 4-6). Luciferase activity is expressed as the percent activity per cell relative to non-treated (NT) controls after the first 72 hours.
Luciferase activity of cell lysates was accessed using Bright-Glo™ Luciferase Assay System (Promega; Madison, Wis.) according to manufacturer's instructions with minor modifications. […]

[4] = proliferating NDF, read-out: IC50 NDFprolif
[5] = senescent NDF, bleomycin-induced, read-out: IC50 NDFsen.bleo
[6] = light or radiation study, senescent NDF, irradiation-induced, read-out: IC50 NDFsen.irr
[7] = light or radiation study, senescent RDF, irradiation-induced, read-out: IC50 RDFsen.irr
[8] = proliferating RDF, read-out: IC50 RDFprolif
[9] = senescent RDF, bleomycin-induced, read-out: IC50 RDFsen.bleo

Structure (SMILES) | IC50 [1, 4] [µM] | IC50 [1, 5] [µM] | IC50 [1, 6] [µM] | IC50 [2, 7] [µM] | IC50 [2, 8] [µM] | IC50 [2, 9] [µM] | Modulation of p16(Ink4a): SAMs [3]
CC1(C)CC(=NO)c2c(SCc3ccccc3)sc(C(=O)NCc3ccccc3)c2C1 [Example A1.4, N-benzyl-3-(benzylthio)-4-(hydroxyimino)-6,6-dimethyl-4,5,6,7-tetrahydrobenzo[c]thiophene-1-carboxamide] | > 20 | < 10 | – | – | – | – | –
CCOC(=O)c1sc(Sc2ccccc2)c2c1CC(c1ccc(OC)cc1)C/C2=N\O (stereo not shown) [Example A1.5, Ethyl 4-(hydroxyimino)-6-(4-methoxyphenyl)-3-(phenylthio)-4,5,6,7-tetrahydro-benzo[c]thiophene-1-carboxylate] | > 10 | < 10 | < 10 | < 5 | > 10 | < 5 | –
CCOC(=O)c1sc(SCc2ccccc2)c2c1CC(c1ccc(F)cc1)CC2=NO (stereo not shown) [Example A1.7, Ethyl 3-(benzylthio)-6-(4-fluorophenyl)-4-(hydroxyimino)-4,5,6,7-tetrahydrobenzo[c]-thiophene-1-carboxylate] | > 10 | < 2.5 | < 2.5 | < 2.5 | > 5 | < 2.5 | –
COc1ccc(C2CC(=NO)c3c(SCc4ccccc4)sc(C(=O)OCc4ccccc4)c3C2)cc1 (stereo not shown) [Example A1.8, Benzyl 3-(benzylthio)-4-(hydroxyimino)-6-(4-methoxyphenyl)-4,5,6,7-tetrahydrobenzo[c]-thiophene-1-carboxylate] | > 20 | < 10 | – | – | – | – | –
CCOC(=O)c1sc(SCc2ccccc2)c2c1C(c1ccc(OC)cc1)CC/C2=N\O (stereo not shown) [Example A1.9, Ethyl 3-(benzylthio)-4-(hydroxyimino)-7-(4-methoxyphenyl)-4,5,6,7-tetrahydrobenzo[c]-thiophene-1-carboxylate] | > 20 | < 20 | < 20 | < 20 | > 20 | > 20 | –
COc1ccc(C2C/C(=N\O)c3c(SCc4ccccc4)sc(C(=O)NCc4ccccc4)c3C2)cc1 (stereo not shown) [Example A1.14, N-benzyl-3-(benzylthio)-4-(hydroxyimino)-6-(4-methoxyphenyl)-4,5,6,7-tetrahydrobenzo[c]thiophene-1-carboxamide] | > 20 | < 5 | < 5 | < 2.5 | > 20 | < 2.5 | –
COc1ccc(C2C/C(=N\O)c3c(SCc4ccccc4)sc(C(=O)NCc4ccco4)c3C2)cc1 (stereo not shown) [Example A1.15, 3-(Benzylthio)-N-(furan-2-ylmethyl)-4-(hydroxyimino)-6-(4-methoxyphenyl)-4,5,6,7-tetrahydrobenzo[c]thiophene-1-carboxamide] | > 20 | < 5 | < 5 | < 5 | > 20 | < 2.6 | –
Cc1ccc(CNc2ncc3c(n2)CC(c2ccccc2)C/C3=N\O)cc1 (stereo not shown) [Example A2.1, 2-((4-Methylbenzyl)amino)-7-phenyl-7,8-dihydroquinazolin-5(6H)-one oxime] | > 20 | < 5 | < 5 | < 5 | > 20 | < 5 | –
O/N=C1\CC(c2ccccc2)Cc2nc(NCCOc3ccccc3)ncc21 (stereo not shown) [Example A2.2, 2-((2-Phenoxyethyl)amino)-7-phenyl-7,8-dihydroquinazolin-5(6H)-one oxime] | > 20 | < 2.5 | < 5 | < 2.5 | > 20 | < 2.5 | –
Nc1nc(CCCc2ccccc2)c2c(n1)CC(c1ccccc1)C/C2=N\O (stereo not shown) [Example A2.3, 2-Amino-7-phenyl-4-(3-phenylpropyl)-7,8-dihydroquinazolin-5(6H)-one oxime] | > 20 | < 20 | < 20 | – | > 20 | < 15 | –
O=C(Nc1ccccc1)c1cc2c(nc1NCCOc1ccccc1)CC(c1ccccc1)C/C2=N\O (stereo not shown) [Example A3.1, 5-(Hydroxyimino)-2-((2-phenoxyethyl)amino)-N,7-diphenyl-5,6,7,8-tetrahydroquinoline-3-carboxamide] | < 5 | < 2.5 | < 2.5 | < 2.5 | > 20 | < 2.5 | –
N#Cc1cc2c(nc1SCc1ccccc1)CC(c1ccccc1)C/C2=N\O (stereo not shown) [Example A3.2, 2-(Benzylthio)-5-(hydroxyimino)-7-phenyl-5,6,7,8-tetrahydroquinoline-3-carbonitrile] | > 20 | < 15 | < 10 | < 2.5 | > 20 | < 5 | –
COc1ccc(C2C/C(=N\O)c3sc(NC(=O)COc4ccc(C)cc4)nc3C2)cc1 (stereo not shown) [Example A4.1] | > 5 | < 5 | < 2.5 | < 5 | < 10 | < 5 | –
O/N=C1\CC(c2ccccc2)Cc2nc(NCc3ccccc3)sc21 (stereo not shown) [Example A4.2, 2-(Benzylamino)-5-phenyl-5,6-dihydrobenzo[d]thiazol-7(4H)-one oxime] | > 20 | < 15 | < 15 | < 10 | > 20 | < 10 | –
CN(C)C(=N)N=C(N)N [Metformin] | – | – | – | – | – | – | decrease
